Experiments:
[1] = test system: LPA receptor-null B103 cells (empty vector); experiment: Intracellular free Ca2+ (Fura-2AM) in B103 cells transfected with empty vector; format: cell-based, rat; details: B103 cells not expressing LPA3 receptor
Text: LPA family receptors are endogenous to cells of most organs. B103 rat neuroblastoma cells, known as LPA receptor-null cells (Valentine et al., Biochim Biophys Acta 1780. 597-605) were transiently transfected with a plasmid (vector) carrying one of genes coding for LPA1(edg-2), LPA2(edg-4), LPA3(edg-7), LPA4, LPA5 and LPA6 receptors or a plasmid carrying none of them (empty vector). Two or three days after transfection, the cells are suspended, and made permeable. Then, the permeable cells are treated with Fura-2AM, a fluorescent dye binding to calcium, and then with gintonin, followed by spectrofluorephotometry to examine whether gintonin induces an increase in intracellular free Ca^2+ level. […]
Briefly, Fura 2-AM loaded cells were diluted with an experimental medium to a final density of 2˜4×10^6 cells/mL, and transferred to polystyrene cuvettes (Elkay Ultra-VU). […] Emission was detected at 510 nm Excitation and emission slit widths were 5 nm Background calibration was performed as described by Jørgensen et al. […]

LPA3 receptor = biological target: T1, LPA3 receptor (Homo sapiens, UniProt Q9UBY5); experiment: Intracellular free Ca2+ (Fura-2AM) in LPA3-expressing B103 cells; format: cell-based; details: LPA3 receptor-expressing B103 cells; read-out: EC50, intracellular calcium increase
T1 construct: host or cells: B103 rat neuroblastoma cells
T1 sequence (Q9UBY5 1-353): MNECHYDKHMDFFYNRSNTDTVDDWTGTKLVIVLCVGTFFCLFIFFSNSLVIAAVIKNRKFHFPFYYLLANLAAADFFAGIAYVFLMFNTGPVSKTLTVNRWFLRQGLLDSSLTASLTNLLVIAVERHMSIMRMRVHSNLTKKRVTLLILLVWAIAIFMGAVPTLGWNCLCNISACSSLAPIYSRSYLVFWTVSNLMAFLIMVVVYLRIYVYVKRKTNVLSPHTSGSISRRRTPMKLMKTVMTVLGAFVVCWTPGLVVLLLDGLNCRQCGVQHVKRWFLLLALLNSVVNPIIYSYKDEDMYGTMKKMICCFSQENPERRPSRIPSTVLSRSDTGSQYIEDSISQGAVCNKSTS
Text: LPA family receptors are endogenous to cells of most organs. B103 rat neuroblastoma cells, known as LPA receptor-null cells (Valentine et al., Biochim Biophys Acta 1780. 597-605) were transiently transfected with a plasmid (vector) carrying one of genes coding for LPA1(edg-2), LPA2(edg-4), LPA3(edg-7), LPA4, LPA5 and LPA6 receptors or a plasmid carrying none of them (empty vector). Two or three days after transfection, the cells are suspended, and made permeable. Then, the permeable cells are treated with Fura-2AM, a fluorescent dye binding to calcium, and then with gintonin, followed by spectrofluorephotometry to examine whether gintonin induces an increase in intracellular free Ca^2+ level.
(1) preparing large quantities of plasmids carrying respective LPA family receptor genes and an empty plasmid carrying none of them through amplification and purification (maxi-preparation); (2) verifying the expression of LPA receptors wherein B103 cells are transfected with haematoglutin (HA)-tagged LPA receptors, and then subjected to Western blotting analysis using an anti-HA primary antibody and a horseradish peroxidase (HRP)-conjugated secondary antibody to develop a color; (3) verifying the expression of LPA receptors wherein B1-3 cells are transfected with haematoglutin (HA)-tagged LPA receptors, and then subjected to confocal laser microscopy using an anti-HA antibody and a fluorescence dye Cy3-conjugated secondary antibody; (4) transfecting the empty plasmid and each of the plasmids carrying LPA family receptor genes into B103 cells; (5) treating the transfected B103 cells with trypsin (0.05% trypsin with EDTA, w/v) 2-3 days post-transfection, to give a cell suspension; (6) culturing the suspended B103 cells with Fura-2AM (2.5 μM); and (7) treating the suspended B103 cells with gintonin and quantifying a change in intracellular free Ca^2+ level in a cuvette by spectrofluorephotometry using Fura-2AM.
Human LPA (lysophosphatidic acid) receptor subtypes, orphan GPCRs (G protein coupled receptors) and plasmids carrying GPCRs were purchased from Missouri S&T resource Center (www.cDNA.org).
The transient transfection of LPA receptor subtypes was carried out with the aid of Lipofectamine 2000 of Invitrogen. A plasmid (10.8 μg) carrying each LPA receptor (LPA1, LPA2, LPA3, LPA4, LPA5, and LPA6) was transfected into B103 cells grown in 10-cm dishes, and incubated for 2 days prior for use in experiments.
In this Example, gintonin, or ginsenoside Rb1 or Rg1 was examined for its ability to induce a transient increase of [Ca^2+]i in Fura-2AM-loaded B103 cells which were transfected with LPA receptors and in Fura-2AM-loaded B103 cells which were not transfected with LPA receptors. To this end, B103 cells (2˜4×10^6/ml) pre-treated with Fura-2AM were suspended in a 1.5 mM Ca^2+-containing buffer or Ca^2+-free buffer, and incubated 37° C. for 30 min, followed by analyzing intracellular calcium levels in the B103 cells in the presence of gintonin or ginsenosides.
Briefly, B103 cells (1˜2×10^6/ml) were mixed with 2.5 μM Fura 2-AM in a Ca^2+ buffer (pH 7.4) containing NaCl 120 mM, KCl 5 mM, MgCl2 1 mM, CaCl2 1.5 mM, glucose 10 mM, and HEPES 25 mM, and a Ca^2+ free buffer (pH 7.4) containing NaCl 120 mM, KCl 5 mM, MgCl2 1 mM, EGTA 0.2 mM, glucose 10 mM, and HEPES 25 mM at 37° C. for 30 min in water bath with shaking according to the Jørgensen method, and washed three times with Ca^2+ buffer or Ca^2+ free buffer to remove excess Fura-2AM.
[Ca^2+]i was estimated in Fura 2AM-loaded cells in suspension using an RF-5300PC intracellular ion measurement system (Shimadzu Corporation, Japan).
Briefly, Fura 2-AM loaded cells were diluted with an experimental medium to a final density of 2˜4×10^6 cells/mL, and transferred to polystyrene cuvettes (Elkay Ultra-VU). The cells were stirred using Teflon-coated magnets, and the cuvette housing was thermostatically controlled at 37° C. The excitation wavelengths were alternated between 340 and 380 nm under computer control. […]

LPA receptor = experiment: Gintonin-induced intracellular Ca2+ increase in LPA receptor-expressing B103 cells (subtype not named); format: cell-based, human; details: pretreated
Text: Optionally, the method may further comprise (8) pre-treating the suspended B103 cells with LPA receptor antagonists and LPA receptor-mediated signaling-relevant drugs (e.g., pertussis toxin, PLC inhibitors, IP3 receptor antagonists) to examine whether the cells decrease or increase in intracellular free Ca^2+, prior to treatment with gintonin; (9) performing site-directed mutagenesis to identify an amino acid of LPA receptors with which gintonin interact to activate the LPA; and (10) examining whether gintonin activates orphan GPCRs including GPR35 and GPR87, and free fatty acid GPCRs including GPR40, GPR41, GPR43 and GPR120, all known for activation by LPA.
In this Example, gintonin, or ginsenoside Rb1 or Rg1 was examined for its ability to induce a transient increase of [Ca^2+]i in Fura-2AM-loaded B103 cells which were transfected with LPA receptors and in Fura-2AM-loaded B103 cells which were not transfected with LPA receptors. […]
Briefly, Fura 2-AM loaded cells were diluted with an experimental medium to a final density of 2˜4×10^6 cells/mL, and transferred to polystyrene cuvettes (Elkay Ultra-VU). […] Emission was detected at 510 nm Excitation and emission slit widths were 5 nm Background calibration was performed as described by Jørgensen et al.

BKCaK+ channels = experiment: BKCa K+ channel activity in Xenopus oocytes, two-electrode voltage clamp; format: cell-based; details: 2-APB 100 μM, BAPTA-AM, PMA 1 μM; for effect on gintonin-induced BKCaK+ channel activation: Kil6425 10 μM, U73122, U73343 1 μM; for effect on ginsenoside Rg3-induced BKCaK+ channel activity: U73122 1 μM
Method: (§1) Xenopus laevis frogs were obtained from Xenopus I (Ann Arbor, Mich.). Their care and handling were in accordance with the highest standards of institutional guidelines. To isolate oocytes, the frogs were operated on under anesthesia with an aerated solution of 3-aminobenzoic acid ethyl ester. Oocytes were separated by treatment with collagenase and agitation for two hours in a Ca^2+-free medium containing 82.5 mM NaCl, 2 mM KCl, 1 mM MgCl2, 5 mM HEPES, 2.5 mM sodium pyruvate, 100 units/ml penicillin and 100 μg/ml streptomycin.
Stage V-VI oocytes were collected and stored in ND96 (96 mM NaCl, 2 mM KCl, 1 mM MgCl2, 1.8 mM CaCl2, and 5 mM HEPES, pH 7.4) supplemented with 50 μg/ml gentamicin. This oocyte containing solution was maintained at 18° C. with continuous gentle shaking while the ND96 medium was changed with a fresh one every day.
Two-electrode voltage-clamp recordings were obtained from individual oocytes placed in a small Plexiglas net chamber (5 ml). Electrophysiological experiments were performed using microelectrodes filled with 3 M KCl (resistance of 0.2-0.7 MΩ) and an Oocyte Clamp amplifier (OC-725C; Warner Instrument, CT, USA) to record BKc K^+ channel activity at room temperature (Choi et al., Mol Cells 31, 133-140, 2011). For physiological recordings of BKCaK^+ channel activity, oocytes were first perfused with a Cl^−- and Ca^2+-free solution (mM: 96 NaOH, 2 KOH, 8 Mg-gluconate, 5 HEPES, 5 EGTA, pH 7.4 with methanesulfonic acid) supplemented with 500 μM anthracene-9-carboxylic acid, a Cl^− channel blocker, to block endogenous Cl-channels (Lu et al., J. Biol. Chem. 265, 16190-16194.1990). Then, the oocytes were clamped at −80 mV holding potential, followed by step depolarization from the holding potential to +40 mV at regular intervals of […] for 400 ms to record outward currents.

[2] = test system: NMDA receptors (NR1 and NR2); experiment: NMDA receptor activity in Xenopus oocytes, two-electrode voltage clamp; format: cell-based; details: Kil6425 10 μM, 2-APB 100 μM, BAPTA 100 μM 3 h
Method: cDNAs of NMDA receptor subunits (NR1 and NR2) were employed (Zheng et al., J Neurosci. 17, 8676-8686, 1997). cDNAs (100 ng/40 nl) corresponding to respective NMDA receptor subunits (NR1 and NR2) were injected into animal or vegetal poles of oocytes by use of a […] (VWR Scientific, USA) and incubated for 4-5 days after injection (Zheng et al., J Neurosci. 17, 8676-8686, 1997).
as §1
Stage V-VI oocytes were collected and stored in ND96 (96 mM NaCl, 2 mM KCl, 1 mM MgCl2, 1.8 mM CaCl2, and 5 mM HEPES, pH 7.4) supplemented with 50 μg/ml gentamicin. This oocyte containing solution was maintained at 18° C. with continuous gentle shaking while the ND96 medium was changed to a fresh one every day.
Two-electrode voltage-clamp recordings were obtained from individual oocytes placed in a small Plexiglas net chamber (5 ml). Electrophysiological experiments were performed using microelectrodes filled with 3 M KCl (resistance of 0.2-0.7 MΩ) and an Oocyte Clamp amplifier (OC-725C; Warner Instrument, Hamden, Conn.). For physiological recordings of NMDA receptor activity, oocytes were first perfused with Mg^2+-free ND96 (mM: 96 NaOH, 2 KOH, 0.3 CaCl2, 5 HEPES pH 7.6 with methanesulfonic acid). Then, the oocytes were clamped at −60 mV holding potential, followed by recoding NMDA currents (induced by administering […]) (Zheng et al., J Neurosci. 17, 8676-8686, 1997; Chang and Kuo, J Neurosci. 28, 1546-1556, 2008).

endogenous CaCC = experiment: Endogenous Ca2+-activated channel (CaCC) activation in Xenopus oocytes; format: cell-based, Xenopus laevis; details: Kil6425 10 μM; U73122 1 μM; 2-APB 100 μM; BAPTA 100 μM 3 h

| Compound | increase of intracellular calcium level [1] | EC50 (LPA3 receptor) | effect of pretreatment on gintonin-induced intracellular calcium increase (LPA receptor) | effect on gintonin-induced BKCaK+ channel activation (BKCaK+ channels) | effect on ginsenoside Rg3-induced BKCaK+ channel activity (BKCaK+ channels) | effect on NMDA-induced inward current ([2]; U73122 1 μM) | effect on gintonin-induced NMDA receptor activation ([2]; gintonin 1 μg/ml, U73122, U73343 1 μM, genistein 10 μM, PP2, PP3 30 μM) | effect on gintonin-induced CaCC activation (endogenous CaCC) |
| --- | --- | --- | --- | --- | --- | --- | --- | --- |
| lysophosphatidic acid [LPA, reference compound] | did not induce the increase of intracellular calcium level | 58.9 ± 5.54 nM | – | – | – | – | – | – |
| CCCCCCCCCCCCCC(=O)O[C@@H]1[C@@H](C)[C@@]2(O)[C@@H](C=C(CO)C[C@]3(O)C(=O)C(C)=C[C@@H]23)[C@@H]2C(C)(C)[C@]12OC(C)=O [PMA] | – | – | blocked | caused the gintonin-induced activation of BKCaK^+ channels to disappear | had no influences on the activity of ginsenoside Rg3 | – | – | – |
| O=C(O)CN(CC(=O)O)c1ccccc1OCCOc1ccccc1N(CC(=O)O)CC(=O)O [BAPTA] | – | – | became invalid | a reduction in BKCaK^+ channel activation | not blocked | normal NMDA-induced inward currents | reduction | a reduction in gintonin-induced CaCC activation |
